≈ marks a conversion by molar mass, not a printed value. Read-outs that look alike come from different tables or passages of the source.
Key:
[1] = tested on: 63 HIV isolates with reduced susceptibility to all approved protease inhibitors; format: cell-based, HIV-1; settings: for % FC < 2.5 / % FC < 10 / % FC > 50 / Mean FC / Median FC: 63 diverse, multi-PI-resistant strains; for Mean FC / Median FC: FC in IC50 vs NL-4.3
Text: The cross-resistance profile of PL-100 against 63 HIV isolates with reduced susceptibility to all approved protease inhibitors (P is) including atazanavir was thus tested.
The panel of 63 viral strains was selected based on the following rationale: 1) High-level loss of susceptibility to specific P is; 2) High-level loss of susceptibility to multiple P is; 3) Good representation of the primary mutations. This panel consists of resistant viruses from highly PI-experienced patients with high-level PI resistance.
The genotype of these viruses encompasses a wide variety of mutational patterns. We particularly looked for the following primary PI mutations: D30N, L33F/I, M461/L, G48V, I50L/V, V82A/F/S/T, I84V and L90M as defined by the International AIDS Society (IAS)-USA.
The dark cells indicate a […], the grey cells indicate FC values of 2.5≦FC<10 and the white cells indicate a FC value of; 0≦FC<2.5. The results of cross-resistance profile are further illustrated in the graph of FIG. 1.
In the cross-resistance profiling studies against the 63 resistant strains mentioned herein, EC95 of PL-100 was determined against each strain. The median EC95 represents the concentration required to inhibit 95% of the viral replication of 50% diverse drug-resistant HIV-1 variants tested. Table 8 illustrates the percentage of resistant strains tested with protein-binding adjusted EC95s≦200 ng/ml. The resistant strains are grouped by the number of primary mutations they have.
The EC95 of PL-100 was determined against each of the 63 resistant strains indicated herein. Table 9 illustrates the percentage of resistant strains tested with protein-binding adjusted EC95s≦630 ng/ml. The resistant strains are grouped by the number of primary mutations they have.

[2] = Cytotoxicity in the same cell culture system; format: cell-based; settings: human, MT4 cells
Procedure: Cytotoxicity of PL-100 and other P is was evaluated in the same cell culture system. The selectivity index (SI) is the ratio of cytotoxicity (CC50) to antiviral activity (EC50). The selective index is similar to the therapeutic index but relates to in vitro studies.

[3] = tested on: laboratory adapted HIV strain (NL4-3); experiment: microbe, parasite or virus in culture; settings: for EC50: Human immunodeficiency virus 1, NL43, MT4, MT4 cells infected with NL4-3; for SI (CC50/EC50): ratio of cytotoxicity (CC50) to antiviral activity (EC50)
Procedure: Briefly, the antiviral activity of PL-100 was determined using MT4 cells infected with a laboratory adapted HIV strain (NL4-3). For comparison, seven approved protease inhibitors (PIs) were tested in parallel.
The effect of 40% human serum on the antiviral activity of PL-100 in MT4 cells infected with NL4-3 was therefore evaluated.

[4] = Pharmacokinetics of PL-100 and PL-461 in rats; format: in vivo, Sprague Dawley rats (Rattus norvegicus)
Procedure: Animal tested are Sprague Dawley rats (species Rattus norvegicus) of 6-7 weeks old at the start of dosing and were obtained from Charles River (Montreal, Canada). The study usually comprises about 6 animals per groups. […] The rats were fasted 3 h. before dosing and 3 h. after dosing. The formulations are prepared as indicated below. The solutions are stable at room temperature over a week and are covered with aluminum foil to avoid lights. […] The dosing volume for all formulations is 2 mL per kg body weight. Blood sample was collected at 15 min, 30 min, 45 min, 1 […] after the dosing. Blood samples were centrifuged to separate the plasma and separated plasma samples were placed into cryovials and frozen at -80° C. for further analysis. Plasma samples together with standards and quality control samples were treated by protein precipitation and then analyzed by HPLC-MS. […] The PK profile was obtained by administration of the test drugs; PL-100 and PL-461 in rats. […] The pharmacokinetic parameters of PL-100 and PL-461 in rats** was compared.

[5] = Water solubility; format: physicochemical
[6] = Study 4: ritonavir administered first, PL-461 15 or 30 minutes later; format: in vivo, Sprague Dawley rats; settings: test compound 15 or 30 minutes later, compared with the method of studies 1-3
[7] = Plasma concentration after single oral dose in rats (in vivo cleavage of the phosphate group); set-up: species or system male Sprague-Dawley rats; settings: for AUC: 50 mg/Kg po, vehicle PBS, 3 rats, released active ingredient detected (PL-100 for PL-462, PL-337 for PL-515); for Detection of the administered phosphate compound in blood samples: 50 mg/kg po as aqueous solution
Procedure: To assess the extent of in vivo cleavage of the phosphate group from the putative compounds, PL-100, PL-462 (based on PL-100), PL-337 and PL-515 (based on PL-337) compounds were administered po (per os, (i.e., by mouth)) (50 mg/kg) to male Sprague-Dawley rats and their plasma concentration measured at different time intervals post-administration.
All test articles (PL-100, PL-462, PL-337 and PL-515) were prepared in different vehicle at the final concentration of 25 mg/mL. The vehicle composition is as follows: (1) 20% ethanol; 50% propylene glycol; 0.05% w/v Tween 20 and water (Mix); (2) PBS buffer (PBS).
Test articles were administered to male Sprague-Dawley rats at a single oral dose of 50 mg/kg. Each article was tested in three rats. Blood samples (0.2-0.3 mL) were collected at the post-dose time of 10, 20, 40, 60, 120, 180 and 360 minutes. The harvested blood was centrifuged to isolate plasma. The resulting plasma was separated and stored at −70° C.
Plasma samples together with standards and quality control samples were treated to precipitate proteins, then analyzed by HPLC-MS, for the presence of PL-462, PL-100, PL-515 and PL-337.

[8] = sample O3-129578, 46I/82T/84V, panel ID 11
[9] = sample O3-148709 (non-B subtype), 32I/47A, panel ID 1
[10] = sample O4-148712, 46I/88S, panel ID 122
[11] = sample O4-148713, 46I/88S, panel ID 123
[12] = sample O4-148748, 37S/41K/70E, panel ID 115
[13] = sample O4-148749, 37T/41K/70E, panel ID 151

Row | SMILES | % FC < 2.5 [1] [%] | % FC < 10 [1] [%] | % FC > 50 [1] [%] | Mean FC [1] | Median FC [1] | Fold change in IC50 vs. Reference [1, 11] | Fold change in IC50 vs. Reference [1, 12] | Fold change in IC50 vs. Reference [1, 13] | CC50 [2] [nM] | EC50 [3] [nM] | SI (CC50/EC50) [3] | also measured
1 | CC(C)(C)NC(=O)[C@@H]1C[C@@H]2CCCC[C@@H]2CN1C[C@@H](O)[C@H](Cc1ccccc1)NC(=O)[C@H](CC(N)=O)NC(=O)c1ccc2ccccc2n1 [Saquinavir] | 27 | 40 | 37 | 85 | 23.2 | 0.6 | 1.2 | 1.2 | 19000 | 12 | 1,583 | Fold change in IC50 vs. Reference ([1]; sample O3-129573, 24I/33F/46I/54L/82A, panel ID 3): 1.5; Fold change in IC50 vs. Reference [1, 8]: 1; Fold change in IC50 vs. Reference ([1]; sample O3-129584, 33F/50V, panel ID 24): 1.7; Fold change in IC50 vs. Reference [1, 9]: 0.2; Fold change in IC50 vs. Reference ([1]; sample O4-148711, 46I/47A/84V, panel ID 119): 1.1; Fold change in IC50 vs. Reference [1, 10]: 1.9; Fold change in IC50 vs. Reference ([1]; sample O4-148712, 46I/88S, panel ID 124): 2; Fold change in IC50 vs. Reference ([1]; sample O4-148721, 32I/46I/47V/50L, panel ID 127): 0.5; Fold change in IC50 vs. Reference ([1]; sample O4-148725, 32I/46L/47V/84V, panel ID 53): 0.8; Fold change in IC50 vs. Reference ([1]; sample O4-148745, 46I/50L/54V/82A, panel ID 99): 2.2
2 | COC(=O)N[C@H](C(=O)NCCCC[C@@H](COP(=O)(O)O)N(CC(C)C)S(=O)(=O)c1ccc(N)cc1)C(c1ccccc1)c1ccccc1 [PL-461, (1S,5S)-(1-{5-[(4-amino-benzenesulfonyl)-isobutyl-amino]-6-phosphonooxy-hexylcarbamoyl}-2,2-diphenyl-ethyl)-carbamic acid methyl ester] | – | – | – | – | – | – | – | – | – | – | – | Fold improved oral bioavailability over PL-100 ([4]; female, Sprague Dawley, rat, in vivo, po): 2-3 fold; Plasma levels of the Lysine-based compound ([4]; rats, after oral dosing, compared to plasma levels of PL-100): insignificant or under detection limits; Fold more water soluble than PL-100 [5]: > 1800 fold; Water solubility ([5]; acidic conditions (FIG. 4)): moderate water solubility; Water solubility ([5]; pH>4.5 (FIG. 4)): increases dramatically; solubility ([5]; water, pH 7.5, aqueous buffer): 145 mg/mL (≈ 206 mM); Increase of pharmacokinetics by sequential administration [6]: as efficient at increasing the pharmacokinetics
3 | COC(=O)N[C@H](C(=O)NCCCC[C@@H](COP(=O)(O)O)N(CC(C)C)S(=O)(=O)c1ccc(N)c(F)c1)C(c1ccccc1)c1ccccc1 [PL-515, (1S,5S)-(1-{5-[(4-amino-3-fluoro-benzenesulfonyl)-isobutyl-amino]-6-phosphonooxy-hexylcarbamoyl}-2,2-diphenyl-ethyl)-carbamic acid methyl ester] | – | – | – | – | – | – | – | – | – | – | – | AUC [7]: 1.075 ± 0.625 μg/hr * ml; Detection of the administered phosphate compound in blood samples [7]: None of the PL-462 and PL-515 compounds, delivered as aqueous solutions, are detected
4 | Cc1cccc(C)c1OCC(=O)N[C@@H](Cc1ccccc1)[C@@H](O)C[C@H](Cc1ccccc1)NC(=O)[C@H](C(C)C)N1CCCNC1=O [Lopinavir] | 10 | 37 | 19 | 31.3 | 17.9 | 0.7 | 1 | 1.3 | 28000 | 19 | 1,474 | Fold change in IC50 vs. Reference ([1]; sample O3-129586, 30N/88D/90M, panel ID 28): 1.2; Fold change in IC50 vs. Reference [1, 10]: 1.7
5 | CC(C)c1nc(CN(C)C(=O)N[C@H](C(=O)N[C@@H](Cc2ccccc2)C[C@H](O)[C@H](Cc2ccccc2)NC(=O)OCc2cncs2)C(C)C)cs1 [Ritonavir, ritonavir] | – | – | – | – | – | – | – | – | – | 61 | – | –
6 | CC(C)(C)NC(=O)[C@@H]1CN(Cc2cccnc2)CCN1C[C@@H](O)C[C@@H](Cc1ccccc1)C(=O)N[C@H]1c2ccccc2C[C@H]1O [Indinavir] | 13 | 54 | 5 | 16.5 | 8.1 | – | – | – | > 100000 | 67 | – | –
7 | CC(C)CN(C[C@@H](O)[C@H](Cc1ccccc1)NC(=O)O[C@H]1CCOC1)S(=O)(=O)c1ccc(N)cc1 [Amprenavir] | 14 | 52 | 8 | 18.5 | 9.7 | – | – | – | > 100000 | 47 | – | –
8 | Cc1c(O)cccc1C(=O)N[C@@H](CSc1ccccc1)[C@H](O)CN1C[C@H]2CCCC[C@H]2C[C@H]1C(=O)NC(C)(C)C [Nelfinavir] | 10 | 27 | 10 | 31.7 | 15 | 4.6 | 1.6 | 1.9 | 8000 | 29 | 276 | Fold change in IC50 vs. Reference [1, 8]: 1.6
9 | COC(=O)N[C@H](C(=O)NCCCC[C@@H](COP(=O)(O)O)N(CC(C)C)S(=O)(=O)c1ccc(N)cc1)C(c1ccccc1)c1ccccc1.[Na] [PL-462, (1S,5S)-(1-{5-[(4-amino-benzenesulfonyl)-isobutyl-amino]-6-phosphonooxy-hexylcarbamoyl}-2,2-diphenyl-ethyl)-carbamic Acid Methyl Ester Sodium Salt] | – | – | – | – | – | – | – | – | – | – | – | AUC [7]: 0.816 ± 0.295 μg/hr * ml; Detection of the administered phosphate compound in blood samples [7]: None of the PL-462 and PL-515 compounds, delivered as aqueous solutions, are detected
10 | COC(=O)N[C@H](C(=O)N[C@@H](Cc1ccccc1)[C@@H](O)CN(Cc1ccc(-c2ccccn2)cc1)NC(=O)[C@@H](NC(=O)OC)C(C)(C)C)C(C)(C)C [Atazanavir] | 16 | 38 | 22 | 25.7 | 15.6 | – | 1.4 | 1.5 | 55000 | 4 | 13,750 | Fold change in IC50 vs. Reference [1, 9]: 1

Reference: patent US20060287316A1, “METHOD FOR IMPROVING PHARMACOKINETICS OF PROTEASE INHIBITORS AND PROTEASE INHIBITOR PRECURSORS” (priority 2005, published 2006)
